{"source": "patent US20260130377A1", "about": "(SYNGENTA CROP PROTECTION AG, priority 2022, published 2026)", "key": {"Zymoseptoria tritici": {"system": "Zymoseptoria tritici", "assay": "liquid culture assay, 96 well plate, Zymoseptoria tritici", "type": "cell-based", "description": "(§1) Cyclothiazomycin C was produced as disclosed in WO2015191789. A stock solution for cyclothiazomycin C was produced in DMSO (max. 10 mg/ml). Malonomicin was produced according to Law et al, 2018 (Nature Catalys is|VOL 1|DECEMBER 2018|977-984). A stock solution of malonomicin was produced in water plus 0.025% Tween®20.\n(§2) Assays to test efficacy of mixtures of cyclothiazomycin C in combination with malonomicin on the control of fungal pathogens in a liquid culture assay were designed for a 96 well plate.\n(§3) A master plate with 10× concentrated solution of the compound stock solutions diluted in water plus 0.025% Tween20 was prepared. The concentration of DMSO (from the stock of cyclothiazomycin C) and Tween20 was kept constant in all cells of th the master plate. 10 μl was transferred from the master plate to a 96 well test plate. The nutrient broth containing the fungal spores/mycelia fragments was then added to the test plate to give an end concentration of 1× for the tested compounds (as outlined in Table 1). The test plates were incubated in the dark at 24° C. and 96% rh. The inhibition of fungal growth was determined photometrically after ca. 3 days, and percent fungal growth reduction relative to the untreated check was calculated. Efficacy of the mixtures was tested on different fungal species:\nZymoseptoria tritici (EPPO Code: SEPTTR)\n(§4) Conidia of the fungus from cryogenic storage were directly mixed into nutrient broth (PDB: potato dextrose broth)."}, "Fusarium culmorum": {"system": "Fusarium culmorum", "assay": "liquid culture assay, 96 well plate, Fusarium culmorum", "type": "cell-based", "description": "as §1, §2, §3\nFusarium culmorum (EPPO Code: FUSACU)\nas §4"}, "Microdochium nivale": {"system": "Microdochium nivale", "assay": "liquid culture assay, 96 well plate, Microdochium nivale", "type": "cell-based", "description": "as §1, §2, §3\nMicrodochium nivale (EPPO Code: MONGNI)\nas §4"}, "Botrytis cinerea": {"system": "Botrytis cinerea", "assay": "liquid culture assay, 96 well plate, Botrytis cinerea", "type": "cell-based", "description": "as §1, §2, §3\nBotrytis cinerea (EPPO Code: BOTRCI)\nConidia of the fungus from cryogenic storage were directly mixed into nutrient broth (Vogel's minimal media)."}, "Puccinia recondita [1]": {"system": "Puccinia recondita", "assay": "wheat leaf disc assay, Puccinia recondita, preventive spray timing", "type": "in vivo", "description": "as §1, with “Tween20.” for “Tween®20.”\n(§5) Assays to test efficacy of mixtures of cyclothiazomycin C in combination with malonomicin on the control of fungal pathogens in a leaf disc assay were designed for two plates.\n(§6) A first set of master plates with 1× concentrated spray solution of the cyclothiazomycin C stock diluted in water with concentrations according to Table 11 or Table 12, respectively, was prepared. Each well contained 2% DMSO and 0.025% Tween20. Accordingly, a second set of master plates with 1× concentrated malonomicin stock diluted in water was prepared. Each well of the second set contained 0.025% Tween20. Leaf segments placed on agar in plates are sprayed with 8 ul of solution from the master plate containing cyclothiazomycin C and the leaf segments were let to dry, followed 2 hours later by 8 ul of solution from the master plate containing malonomicin. After second sprays have dried, leaf segments are infected with fungal spores to obtain a preventive application timing. Alternatively, leaf segments infected one day before spray of the compounds are used, resulting in a curative spray timing. In addition, several plates were produced where leaf segments were sprayed 2× in absence of test compound (with only DMSO and Tween20), representing the untreated check samples. For each leaf segment percent leaf coverage of disease symptoms was assessed. Percent leaf coverage reduction relative to the untreated check was calculated. Efficacy of the mixtures was tested in duplicate. Reported efficacy values are the average of two replicate results.\nPuccinia recondita (EPPO Code: PUCCRE) with Preventive Spray Timing.\nWheat (cultivar Kanzler) leaf segments are placed on agar in multiwell plates and sprayed with test solutions (8 ul per well). After drying, the leaf disks are inoculated with a spore suspension of the fungus. After appropriate incubation the activity of a compound is assessed 8 dpi (days after inoculation) as preventive fungicidal activity."}, "Puccinia recondita [2]": {"system": "Puccinia recondita", "assay": "wheat leaf disc assay, Puccinia recondita, curative spray timing", "type": "in vivo", "description": "as §1, with “Tween20.” for “Tween®20.”\nas §5, §6\nPuccinia recondita (EPPO Code: PUCCRE) with Curative Spray Timing.\nWheat (cultivar Kanzler) leaf segments are placed on agar in multiwell plates. The leaf disks are then inoculated with a spore suspension of the fungus. One day after inoculation the test solution is sprayed (8 ul per well). After appropriate incubation the activity of a compound is assessed 8 dpi (days after inoculation) as curative fungicidal activity"}, "[3]": {"system": "a variety of fungal strains", "details": "quoted from WO2015191789, page 31; cited from earlier work"}, "genus Bacillus": {"system": "genus Bacillus", "details": "quoted from WO2015191789, page 31; cited from earlier work"}, "[4]": {"details": "cyclothiazomycin C 1.56 ppm solo"}, "[5]": {"details": "cyclothiazomycin C 3.125 ppm solo"}, "[6]": {"details": "cyclothiazomycin C 6.25 ppm solo"}, "[7]": {"details": "cyclothiazomycin C 12.5 ppm solo"}, "[8]": {"details": "cyclothiazomycin C 100 ppm solo"}, "[9]": {"details": "cyclothiazomycin C 3.13 ppm solo"}, "[10]": {"details": "cyclothiazomycin C 200 ppm solo"}}}
{"smiles": "C=C1NC(=O)CNC(=O)[C@H](CCCCN)NC(=O)[C@@]2(C)NC(=O)/C(=C/C)NC(=O)[C@H]3CSC(=N3)[C@@H](CC(N)=O)NC(=O)c3ccc(nc3[C@@H](C)NC(=O)[C@@H]3CCCN3C1=O)-c1nc(cs1)C1=N[C@H](CS1)C(=O)NC(=C)c1nc(cs1)-c1nc(cs1)C1=N[C@@H](CS1)C(=O)N[C@@H](C(=O)O)CS2", "note": "[cyclothiazomycin C]", "values": [{"measurement": "control of fungal growth", "setting": "Zymoseptoria tritici; [4]", "value": 70, "unit": "%"}, {"measurement": "control of fungal growth", "setting": "Zymoseptoria tritici; [5]", "value": 70, "unit": "%"}, {"measurement": "control of fungal growth", "setting": "Zymoseptoria tritici; [6]", "value": 70, "unit": "%"}, {"measurement": "control of fungal growth", "setting": "Zymoseptoria tritici; [7]", "value": 70, "unit": "%"}, {"measurement": "control of fungal growth", "setting": "Zymoseptoria tritici; cyclothiazomycin C 25 ppm solo", "value": 90, "unit": "%"}, {"measurement": "control of fungal growth", "setting": "Zymoseptoria tritici; cyclothiazomycin C 50 ppm solo", "value": 90, "unit": "%"}, {"measurement": "control of fungal growth", "setting": "Zymoseptoria tritici; [8]", "value": 100, "unit": "%"}, {"measurement": "control of fungal growth", "setting": "Fusarium culmorum; [4]", "value": 20, "unit": "%"}, {"measurement": "control of fungal growth", "setting": "Fusarium culmorum; [5]", "value": 20, "unit": "%"}, {"measurement": "control of fungal growth", "setting": "Fusarium culmorum; [6]", "value": 20, "unit": "%"}, {"measurement": "control of fungal growth", "setting": "Fusarium culmorum; [7]", "value": 20, "unit": "%"}, {"measurement": "control of fungal growth", "setting": "Fusarium culmorum; cyclothiazomycin C 25 ppm solo", "value": 20, "unit": "%"}, {"measurement": "control of fungal growth", "setting": "Fusarium culmorum; cyclothiazomycin C 50 ppm solo", "value": 20, "unit": "%"}, {"measurement": "control of fungal growth", "setting": "Fusarium culmorum; [8]", "value": 20, "unit": "%"}, {"measurement": "control of fungal growth", "setting": "Microdochium nivale; [4]", "value": 70, "unit": "%"}, {"measurement": "control of fungal growth", "setting": "Microdochium nivale; [5]", "value": 70, "unit": "%"}, {"measurement": "control of fungal growth", "setting": "Microdochium nivale; [6]", "value": 70, "unit": "%"}, {"measurement": "control of fungal growth", "setting": "Microdochium nivale; [7]", "value": 70, "unit": "%"}, {"measurement": "control of fungal growth", "setting": "Microdochium nivale; cyclothiazomycin C 25 ppm solo", "value": 90, "unit": "%"}, {"measurement": "control of fungal growth", "setting": "Microdochium nivale; cyclothiazomycin C 50 ppm solo", "value": 90, "unit": "%"}, {"measurement": "control of fungal growth", "setting": "Microdochium nivale; [8]", "value": 90, "unit": "%"}, {"measurement": "control of fungal growth", "setting": "Botrytis cinerea; [4]", "value": 20, "unit": "%"}, {"measurement": "control of fungal growth", "setting": "Botrytis cinerea; [5]", "value": 20, "unit": "%"}, {"measurement": "control of fungal growth", "setting": "Botrytis cinerea; [6]", "value": 20, "unit": "%"}, {"measurement": "control of fungal growth", "setting": "Botrytis cinerea; [7]", "value": 20, "unit": "%"}, {"measurement": "control of fungal growth", "setting": "Botrytis cinerea; cyclothiazomycin C 25 ppm solo", "value": 20, "unit": "%"}, {"measurement": "control of fungal growth", "setting": "Botrytis cinerea; cyclothiazomycin C 50 ppm solo", "value": 20, "unit": "%"}, {"measurement": "control of fungal growth", "setting": "Botrytis cinerea; [8]", "value": 20, "unit": "%"}, {"measurement": "control of fungal growth (% reduction of symtoms on the leaf segment)", "setting": "Puccinia recondita [1]; [9]", "value": 0, "unit": "%"}, {"measurement": "control of fungal growth (% reduction of symtoms on the leaf segment)", "setting": "Puccinia recondita [1]; [6]", "value": 0, "unit": "%"}, {"measurement": "control of fungal growth (% reduction of symtoms on the leaf segment)", "setting": "Puccinia recondita [1]; [7]", "value": 10, "unit": "%"}, {"measurement": "control of fungal growth (% reduction of symtoms on the leaf segment)", "setting": "Puccinia recondita [1]; cyclothiazomycin C 25 ppm solo", "value": 95, "unit": "%"}, {"measurement": "control of fungal growth (% reduction of symtoms on the leaf segment)", "setting": "Puccinia recondita [1]; cyclothiazomycin C 50 ppm solo", "value": 95, "unit": "%"}, {"measurement": "control of fungal growth (% reduction of symtoms on the leaf segment)", "setting": "Puccinia recondita [1]; [8]", "value": 95, "unit": "%"}, {"measurement": "control of fungal growth (% reduction of symtoms on the leaf segment)", "setting": "Puccinia recondita [1]; [10]", "value": 100, "unit": "%"}, {"measurement": "control of fungal growth (% reduction of symtoms on the leaf segment)", "setting": "Puccinia recondita [2]; [9]", "value": 0, "unit": "%"}, {"measurement": "control of fungal growth (% reduction of symtoms on the leaf segment)", "setting": "Puccinia recondita [2]; [6]", "value": 10, "unit": "%"}, {"measurement": "control of fungal growth (% reduction of symtoms on the leaf segment)", "setting": "Puccinia recondita [2]; [7]", "value": 0, "unit": "%"}, {"measurement": "control of fungal growth (% reduction of symtoms on the leaf segment)", "setting": "Puccinia recondita [2]; cyclothiazomycin C 25 ppm solo", "value": 0, "unit": "%"}, {"measurement": "control of fungal growth (% reduction of symtoms on the leaf segment)", "setting": "Puccinia recondita [2]; cyclothiazomycin C 50 ppm solo", "value": 0, "unit": "%"}, {"measurement": "control of fungal growth (% reduction of symtoms on the leaf segment)", "setting": "Puccinia recondita [2]; [8]", "value": 0, "unit": "%"}, {"measurement": "control of fungal growth (% reduction of symtoms on the leaf segment)", "setting": "Puccinia recondita [2]; [10]", "value": 0, "unit": "%"}, {"measurement": "growth inhibitory action toward a variety of fungal strains", "setting": "[3]", "value": "none was observed"}, {"measurement": "antimicrobial inhibitory activity", "setting": "genus Bacillus", "value": "greatest inhibitory activity"}]}
